PMC2099433, “The binding site for neohesperidin dihydrochalcone at the human sweet taste receptor” (BMC Structural Biology, 2007)
Substitutions are numbered along the chain they refer to. Where a SMILES comes first, the peptide text is derived from it.

Legend:
[1] = biological target: T1, hTAS1R2 + hTAS1R3 L800F^7.38 (Homo sapiens, UniProt Q7RTX0+Q8TE23, L800F); assay: Calcium response (FLIPR), hTAS1R3 mutant coexpressed with hTAS1R2; format: cell-based; conditions: variant L800F^7.38; for Emax: read-out: maximal signal (% of wt)
T1 construct: expressed in transfected cells; host or cells: HEK293T cells stably expressing G16Gust44
T1 sequence (Q7RTX0 21-852 L800F): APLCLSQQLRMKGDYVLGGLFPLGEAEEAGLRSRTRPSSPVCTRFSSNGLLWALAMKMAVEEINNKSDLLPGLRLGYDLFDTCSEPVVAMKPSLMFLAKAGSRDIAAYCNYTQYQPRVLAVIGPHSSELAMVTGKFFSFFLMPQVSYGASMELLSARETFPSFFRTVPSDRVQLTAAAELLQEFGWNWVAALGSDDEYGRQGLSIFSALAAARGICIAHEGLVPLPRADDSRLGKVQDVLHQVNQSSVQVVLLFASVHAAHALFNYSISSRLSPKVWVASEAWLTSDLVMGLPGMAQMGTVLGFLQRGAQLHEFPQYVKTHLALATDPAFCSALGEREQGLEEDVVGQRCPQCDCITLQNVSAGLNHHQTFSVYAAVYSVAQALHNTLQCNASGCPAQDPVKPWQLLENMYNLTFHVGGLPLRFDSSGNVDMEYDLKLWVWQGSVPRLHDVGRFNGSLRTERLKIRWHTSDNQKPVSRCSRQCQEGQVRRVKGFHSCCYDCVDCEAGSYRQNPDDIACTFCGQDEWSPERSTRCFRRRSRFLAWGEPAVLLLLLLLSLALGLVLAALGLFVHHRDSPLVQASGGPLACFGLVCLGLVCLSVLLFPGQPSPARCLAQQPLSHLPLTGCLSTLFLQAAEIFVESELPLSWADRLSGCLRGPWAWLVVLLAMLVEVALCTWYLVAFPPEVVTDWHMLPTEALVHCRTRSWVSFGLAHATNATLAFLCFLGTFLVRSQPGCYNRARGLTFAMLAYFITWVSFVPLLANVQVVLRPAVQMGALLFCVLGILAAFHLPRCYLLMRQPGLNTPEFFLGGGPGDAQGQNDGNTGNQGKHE
T1 sequence (Q8TE23 20-839): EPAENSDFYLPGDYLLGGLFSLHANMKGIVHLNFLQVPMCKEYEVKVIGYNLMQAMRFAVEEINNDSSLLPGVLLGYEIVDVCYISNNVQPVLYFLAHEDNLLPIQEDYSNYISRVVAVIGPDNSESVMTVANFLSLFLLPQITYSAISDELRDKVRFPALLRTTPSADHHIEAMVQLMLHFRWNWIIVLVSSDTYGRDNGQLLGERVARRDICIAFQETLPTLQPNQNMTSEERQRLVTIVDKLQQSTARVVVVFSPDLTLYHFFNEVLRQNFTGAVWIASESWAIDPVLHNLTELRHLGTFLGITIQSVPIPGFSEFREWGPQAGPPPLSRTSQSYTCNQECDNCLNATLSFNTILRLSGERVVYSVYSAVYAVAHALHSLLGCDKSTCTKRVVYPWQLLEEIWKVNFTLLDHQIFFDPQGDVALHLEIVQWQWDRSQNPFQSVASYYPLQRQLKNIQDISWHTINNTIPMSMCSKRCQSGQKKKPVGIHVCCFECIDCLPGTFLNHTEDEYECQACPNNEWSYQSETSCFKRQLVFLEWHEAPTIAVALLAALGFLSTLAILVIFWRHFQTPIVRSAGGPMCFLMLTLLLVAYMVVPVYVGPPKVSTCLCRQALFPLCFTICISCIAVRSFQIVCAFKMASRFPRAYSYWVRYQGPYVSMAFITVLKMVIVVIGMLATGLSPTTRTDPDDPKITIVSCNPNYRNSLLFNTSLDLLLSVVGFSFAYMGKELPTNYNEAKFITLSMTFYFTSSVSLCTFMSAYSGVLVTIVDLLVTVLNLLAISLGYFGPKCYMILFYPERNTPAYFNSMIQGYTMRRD
How it was run: (§1)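 HEK293T cells stably expressing chimeric G16Gust44 were transiently transfected with C-terminally HSV-tagged hTAS1R2 and mutant hTAS1R3, then loaded 24 h later with Fluo4-AM for 1 h. Calcium mobilization after sweet-tastant application was read by FLIPR, mock-corrected and expressed as ΔF/F.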

[2] = biological target: T2, hTAS1R2 + hTAS1R3 S620A^2.57 (Homo sapiens, UniProt Q7RTX0+Q8TE23, S620A); assay: as above; format: cell-based; conditions: variant S620A^2.57; for Emax: read-out: maximal signal (% of wt)
T2 construct: expressed in transfected cells; host or cells: HEK293T cells stably expressing G16Gust44
T2 sequence (Q8TE23 20-839): T1 sequence (Q8TE23 20-839)
T2 sequence (Q7RTX0 21-852 S620A): T1 sequence (Q7RTX0 21-852 L800F) with S600A, F780L
How it was run: as §1

For COc1ccc(CCC(=O)c2c(O)cc(O[C@@H]3O[C@H](CO)[C@@H](O)[C@H](O)[C@H]3O[C@@H]3O[C@@H](C)[C@H](O)[C@@H](O)[C@H]3O)cc2O)cc1O [NHDC, neohesperidin dihydrochalcone], the EC50 [1] was 0.2 ± 0.1 mM, the Emax [1] was 91 ± 70% and the EC50 [2] was 1.3 ± 0.5 mM. For the same molecule, the Emax [2] was 55 ± 80%.

In the case of COC(=O)[C@H](Cc1ccccc1)NC(=O)[C@@H](N)CC(=O)O [aspartame] (HELM PEPTIDE1{D.F.[CO[*:1]]}$$$$V2.0), the EC50 [1] is reported as 1.2 ± 0.3 mM, the Emax [1] is reported as 90 ± 1% and the EC50 [2] is reported as 1.2 ± 0.3 mM. For the same molecule, the Emax [2] was 64 ± 4%.
